Experimental data as given in patent publication US10130674B2, “Modified peptide that reduces pain in peripheral neuropathy” (Creative Bio-Peptides, priority 2010, dated 2018).

Tests used:
[1] = test system: CCR5-specific virus (HIVBaL); experiment: In vitro CCR5 receptor viral infectivity assay (GHOST R5 reporter cells); format: cell-based, HIV; details: GFP reporter
Experimental: This virus uses CCR5 receptor binding to infect its host cell.
In Vitro CCR5 Receptor Viral Infectivity Assay
A CCR5-specific virus (HIVBaL) was added 1 hr later. CCR5 receptor viral infectivity was tested on CCR5-containing cells with a Green Fluorescent Protein (GFP) reporter that responds to viral infection.
The experiment, which was repeated 5 times in various cell systems, was performed in triplicate and bars correspond to standard error of the mean. Data were analyzed by a nonlinear fit using GraphPad Prism 5.

[2] = Nerve damage neuropathic pain, DAPTA pilot study; format: in vivo, rat
CCR5 = CCR5 (Homo sapiens, UniProt P51681); details: cited from earlier work
CCR5, sequence (P51681 whole entry): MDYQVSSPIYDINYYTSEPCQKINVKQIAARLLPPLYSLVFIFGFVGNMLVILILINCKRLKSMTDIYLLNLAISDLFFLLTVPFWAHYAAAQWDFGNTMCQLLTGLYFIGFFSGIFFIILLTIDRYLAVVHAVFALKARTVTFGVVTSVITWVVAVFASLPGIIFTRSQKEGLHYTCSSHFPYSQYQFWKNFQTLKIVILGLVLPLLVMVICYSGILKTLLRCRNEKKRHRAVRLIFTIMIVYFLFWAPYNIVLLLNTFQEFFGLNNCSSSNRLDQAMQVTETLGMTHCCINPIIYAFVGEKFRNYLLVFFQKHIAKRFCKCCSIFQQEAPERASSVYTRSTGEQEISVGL

[3] = data not shown
[4] = data not shown; remark: listed apart in the source

Compound	block of infection by CCR5 using virus (HIVBaL) [1]	neuropathic pain development ([2]; pilot study, 0.01 mg/kg, not shown)	pain in the paw ipsilateral to nerve damage ([2]; rats)	affinity for R5 (CCR5)	paw withdrawal threshold in naïve animals [3]	paw withdrawal latency in naïve animals [4]
D-Ala-Peptide T-amide [DAPTA]	block CCR5 receptors	inhibited neuropathic pain development	attenuated pain	femtomolar range	–	–
C[C@H](O)[C@@H](N)C(=O)N[C@@H](C(=O)N[C@H](CC(N)=O)C(=O)N[C@H](Cc1ccc(O)cc1)C(=O)N[C@@H](C(=O)O)[C@H](C)O)[C@H](C)O [All D TTNYT]	–	–	–	–	did not alter	did not alter
